Reference: US9963457B2, “Crystal of 5-((2-(6-amino)-9H-purin-9-yl)ethyl)amino)pentan-1-o1” (FOREVER CHEER INTERNATIONAL LIMITED, priority 2016, dated 2018)
Values after ≈ are worked out from the molar mass of the structure shown.

Experiments:
[1] = tested on: mice after neuropathic pain; experiment: Bright/dark box test, neuropathic pain; type: in vivo
[2] = tested on: mice after neuropathic pain; experiment: Elevated plus maze test (EPM), neuropathic pain; type: in vivo
Protocol: (§1) An anxious animal model of the prior art—the elevated plus maze test (EPM) was adopted. The mice were acclimated for 30 minutes in the room prior to the behavior observation. The EPM was composed of two open arms (250 lux) and two closed arms (350 lux) arranged opposite to each other. For each test, an individual animal was placed at the center of the test position and allowed to move freely. The test is carried out for 5 minutes. The number of entering the test position for each arm and the time spent therefore were recorded.
The other two sets of tests were conducted to test the effect of the crystal of the present invention on inhibiting anxiety caused by chronic pain and neuropathic pain.
(§2) The EPM test tested the anxiety behavior of mice after the test treatment. The physiological saline, non-crystalline NB001 (3 mg/kg), the crystal of the present invention (3 mg/kg), and Gabapentin (30 mg/kg) as a positive control were intraperitoneally injected (IP) into the mice treated with yeast polysaccharide respectively. The behaviors of Mice were observed 28 days after the yeast polysaccharide treatment.

[3] = tested on: mice treated with yeast polysaccharide; experiment: Visceral pain behavior test in chronic visceral pain model; type: in vivo; conditions: for Number of visceral pain scores: 28 days after yeast polysaccharide treatment
Protocol: Chronic Visceral Pain Model
(§3) The visceral pain is induced by injecting yeast polysaccharide into the mice colony, and the yeast polysaccharide is derived from Saccharomyces cerevisiae (Sigma), wherein one kind of dextran is resident on the cell wall of the yeast and is identified as a protein-carbohydrate complex. Specifically, the mice were anesthetized after inhaling 1-3% isoflurane, and then a […] suspension of yeast polysaccharide (formulated as a 30 mg/ml solution in physiological saline) was injected into the colon of the mice by using a 24 mm long plastic feed needle within 2 minutes. The control group was injected with 0.1 ml physiological saline. The yeast polysaccharide or physiological saline was injected daily for 3 days. A visceral pain behavior test was carried out according to the Laird procedure. The number of times the mice licking the abdomen within 10 minutes was recorded, excluding other grooming behaviors, stretching of whole body, pressing the abdomen against the floor, and an 1-2-second arched posture. On day 1, 7 and 14 after the injection into the colon, an open field test was carried out from 9 am to 12 pm, and the entire test was a double-blind test. Prior to the behavioral test, the mice were acclimated for 30 minutes in an observation room. The mice were placed at the middle of a new open zone (43.2×43.2×30.5 cm^3) with micro light (<50 lux) and a fan. The movement distance, vertical count, movement count, stereotypic behavior count, and jumping count of animals were recorded within 30 minutes by means of an activity monitoring system equipped with multiple pairs of packaged light beam sets.
as §2, with “The” for “The EPM test tested the anxiety behavior of mice after the test treatment. The”

[4] = tested on: mice treated with yeast polysaccharide; experiment: Bright/dark box test, visceral pain; type: in vivo; conditions: for % time in the open arm: Bright/dark box test, Visceral pain
Protocol: as §3
Bright/dark box test: The test procedure was carried out by using an improved method in accordance with the prior art. The device was composed of a rectangular organic glass box (44×8.5×25 cm^3), which is separated into bright and dark compartments with the equal size by using a door. A 60 watt lamp (400 lux) in turn-on state was placed at 30 cm above the box to irradiate the bright compartment. Each animal was first placed in the dark compartment for 20 seconds, and then the door leading to the bright compartment was open. The time each animal stayed in the dark compartment and the time each animal enters the bright compartment within 10 minutes were recorded.
In order to confirm the effect of the crystal of the present invention on inhibiting anxiety, mice were subjected to a bright/dark box test, and the results were as shown in Table 8. The physiological saline, non-crystalline NB001 (3 mg/kg), the crystal of the present invention (3 mg/kg), and Gabapentin (30 mg/kg) as a positive control were intraperitoneally injected (IP) into the mice treated with yeast polysaccharide respectively. The behaviors of Mice were observed 28 days after the yeast polysaccharide treatment.

[5] = tested on: bone cancer pain model in rat (Walker 256 cells); experiment: Paw withdrawal thermal latency (PWL) in bone cancer pain model; type: in vivo, SD rats; conditions: twice daily for 3 days, PWL at 2 h after last administration (21d)
Protocol: 1. Animals 50 SD rats (180-220 g), placed under a quiet and warm (22° C.) environment without strong light irradiation, having free access to feed and water.
2. Cell Culture: SD Rat homologous cancer cell strains Walker 256 preserved by the Laboratory Animal Center, Forth Military Medical
University, or a commercially available product can be used. RPMI 1640 culture medium (Gibco Inc. of US, containing 100 U/ml each of 10% fetal bovine serum, penicillin, and streptomycin) was used, and the tumor cells were incubated as suspension cells in a 37° C. incubator under 5% CO2, with the medium replaced every other day, and 2 days for 1 passage. The cells were harvested at the 3rd passage, with a cell concentration of 2×10^5/10 μl.
3. Establishment of bone cancer pain model in rat: the rats were operated at the left knee with a small incision after anesthesia (40 mg/kg of pentobarbital sodium) according to sterile surgical operation procedures, the muscle was stripped off gently and the patellar ligament is cut open to expose the distal femur, with 1 mm syringe needle inserted from the intercondylar fossa vertically into the marrow cavity, with an inserting distance no more than 5 mm to prevent punching. Then a 20 μl micro-injector was inserted into the marrow cavity to slowly inject 10 μl of a suspension containing the Walker 256 cells (2×10^5 cancer cells per 10 μl). The injector was stayed there for a few minutes after the injection, and then the needle pinhole was immediately sealed with sterile bone wax. The tumor cells leaking out of the marrow cavity were killed with 75% ethyl alcohol, and then the rat was sutured under sterile conditions layer by layer. The same operation was performed in the sham operation group, except that only the same volume of sterile saline was injected into the marrow cavity slowly.
6. Drug intervention: On day 18 after the surgical operation, the SD rats of the operation group were randomized into 6 groups, i.e., respectively the model group; non-crystalline NB001 group (20 mg/kg, i.g.); the group of the crystal of the present invention (20 mg/kg, i.g.); morphine (2 mg/kg, i.p.); and gabapentin (100 mg/kg, i.g.). The new crystal form and non-crystalline form of the AC1 inhibitor NB001 were both formulated with sterile saline, and morphine and gabapentin were used as positive control drugs. All drugs were administered twice daily for 3 days, and the pain threshold was measured within 2 hours after the last administration on day 3
7. Assessment of rat pain behavior:
Paw withdrawal thermal latency (PWL): the PWL was measured by using a PL-200 thermal pain stimulator (8V, 50 W, with a strength of 100%). The time period since the time irradiating the middle portion of the planta pedis at the operation side of the rat with light till the time the rat lifted its leg to keep out of the light was TWL. To prevent tissue injury, a cut-off time of 80 s was set, each rat was measured for 3 times with an interval of 5 min, and the results were averaged.

[6] = tested on: mice treated with yeast polysaccharide; experiment: Elevated plus maze test (EPM), visceral pain; type: in vivo; conditions: for % time in the open arm: Visceral pain
Protocol: as §3, §1, §2

[7] = Approximate solubility of BPCs in organic solvent and mixed solvent; type: physicochemical; conditions: organic solvent or mixture, thermodynamic from solid
Protocol: Into 7 mL vials were weighed 2.0 mg of the raw material respectively. Then appropriate amount of methanol, ethanol, isopropyl alcohol, n-butanol, acetonitrile, acetone, ethyl acetate, 2-methyl tetrahydrofuran, tetrahydrofuran, dioxane, n-pentyl alcohol, toluene, isopropyl alcohol+water (with a mass ratio of 3:1), acetonitrile+water (with a mass ratio of 3:1), acetone+water (with a mass ratio of 3:1), and ethanol+water (with a mass ratio of 3:1) were added into respective vials, and the mixture was shaken rapidly to dissolve the compound of the mixture until the solution becomes clear. The approximate solubility of the resultant bulk pharmaceutical chemicals (BPC) in an organic solvent and a mixed solvent was shown in Table 1 below.

adenylate cyclase 1 = adenylate cyclase 1 (Homo sapiens, UniProt Q08828); conditions: described in WO2007/041863; cited from earlier work
Sequence of adenylate cyclase 1 (Q08828 whole entry): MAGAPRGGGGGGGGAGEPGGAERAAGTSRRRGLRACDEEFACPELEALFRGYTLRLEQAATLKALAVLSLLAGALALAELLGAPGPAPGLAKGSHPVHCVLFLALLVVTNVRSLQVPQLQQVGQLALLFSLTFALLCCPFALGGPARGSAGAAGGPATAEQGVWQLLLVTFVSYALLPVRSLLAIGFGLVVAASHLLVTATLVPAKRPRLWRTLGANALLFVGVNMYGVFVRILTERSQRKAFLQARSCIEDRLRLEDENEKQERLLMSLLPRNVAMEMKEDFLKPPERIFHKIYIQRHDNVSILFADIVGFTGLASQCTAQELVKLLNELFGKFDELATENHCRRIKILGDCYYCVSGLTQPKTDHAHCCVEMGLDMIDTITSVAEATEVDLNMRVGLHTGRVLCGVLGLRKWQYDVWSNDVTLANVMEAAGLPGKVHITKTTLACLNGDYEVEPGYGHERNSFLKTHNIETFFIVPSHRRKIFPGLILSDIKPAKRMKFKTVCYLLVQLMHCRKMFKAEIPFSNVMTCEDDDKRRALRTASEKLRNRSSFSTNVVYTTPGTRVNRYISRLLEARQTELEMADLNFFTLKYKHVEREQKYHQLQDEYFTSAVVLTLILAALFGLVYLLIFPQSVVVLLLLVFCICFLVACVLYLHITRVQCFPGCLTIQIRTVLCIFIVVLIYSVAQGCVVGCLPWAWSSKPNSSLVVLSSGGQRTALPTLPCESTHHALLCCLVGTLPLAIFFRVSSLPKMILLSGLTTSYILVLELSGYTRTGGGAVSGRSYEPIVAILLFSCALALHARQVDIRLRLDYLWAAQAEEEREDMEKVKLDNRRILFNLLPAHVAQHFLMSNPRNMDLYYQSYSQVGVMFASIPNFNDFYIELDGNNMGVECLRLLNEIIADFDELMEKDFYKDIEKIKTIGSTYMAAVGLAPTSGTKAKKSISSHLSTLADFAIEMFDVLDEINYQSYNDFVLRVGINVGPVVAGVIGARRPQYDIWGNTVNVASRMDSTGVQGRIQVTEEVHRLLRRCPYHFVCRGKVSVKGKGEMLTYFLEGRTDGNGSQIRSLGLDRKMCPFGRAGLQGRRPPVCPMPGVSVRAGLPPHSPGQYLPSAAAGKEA

NCC1(CC(=O)O)CCCCC1 [Gabapentin, gabapentin, reference compound]
% time in the open arm ([1]; 30 mg/kg IP): 9.6 ± 1.5 (7) % | % time in the open arm ([2]; 30 mg/kg IP): 9.6 ± 1.5 (7) % | Number of visceral pain scores ([3]; 30 mg/kg IP): 20.7 ± 1.9 | % time in the open arm ([4]; 30 mg/kg IP): 8.6 ± 1.5 (8) % | analgesic effect (PWL) as compared with the model group ([5]; 100 mg/kg, i.g.): better analgesic effect | % time in the open arm ([6]; 30 mg/kg IP): 8.6 ± 1.5 (8) %

Nc1ncnc2c1ncn2CCNCCCCCO [NB001, 5-(((2-(6-amino)-9H-purin-9-yl)ethyl)amino)pentan-1-ol]
% time in the open arm ([1]; 3 mg/kg IP, 3 mg/kg): 10.1 ± 1.8 (8) % | % time in the open arm ([2]; 3 mg/kg IP, 3 mg/kg): 10.1 ± 1.8 (8) % | solubility ([7]; 2-methyl tetrahydrofuran): < 2000 µg/mL | solubility ([7]; acetone): < 2000 µg/mL | solubility ([7]; acetone/water (mass ratio 3:1)): 100000 to 200000 µg/mL | solubility ([7]; acetonitrile): < 2000 µg/mL | solubility ([7]; acetonitrile/water (mass ratio 3:1)): 100000 to 200000 µg/mL | solubility ([7]; dioxane): < 2000 µg/mL | solubility ([7]; ethanol): 7000 to 10000 µg/mL (≈ 26.5 to 37.8 mM) | solubility ([7]; ethanol/water (mass ratio 3:1)): 100000 to 200000 µg/mL | solubility ([7]; ethyl acetate): < 2000 µg/mL | solubility ([7]; isopropyl alcohol): ~2000 µg/mL (≈ 7.57 mM) | solubility ([7]; isopropyl alcohol/water (mass ratio 3:1)): 70000 to 100000 µg/mL | solubility ([7]; methanol): 50000 to 66000 µg/mL (≈ 189 to 250 mM) | solubility ([7]; n-butanol): 2200 to 2500 µg/mL (≈ 8.32 to 9.46 mM) | solubility ([7]; n-pentyl alcohol): 3000 to 4000 µg/mL (≈ 11.3 to 15.1 mM) | solubility ([7]; tetrahydrofuran): < 2000 µg/mL | solubility ([7]; toluene): < 2000 µg/mL | % time in the open arm ([4]; 3 mg/kg IP, 3 mg/kg): 5.2 ± 0.7 (8) % | % time in the open arm ([6]; 3 mg/kg IP, 3 mg/kg): 5.2 ± 0.7 (8) % | inhibition of adenylate cyclase 1 (adenylate cyclase 1): capable of selectively inhibiting adenylate cyclase 1

Nc1ncnc2c1ncn2CCNCCCCCO [Old NB001, 5-(((2-(6-amino)-9H-purin-9-yl)ethyl)amino)pentan-1-ol]
Number of visceral pain scores ([3]; 3 mg/kg IP): 19.6 ± 1.2 | therapeutic effect on chronic pain as compared with the positive control group ([3]; 3 mg/kg IP, Table 6, listed as non-crystalline NB001): significant therapeutic effects | therapeutic effect in bright/dark box test as compared with the positive control group ([4]; 3 mg/kg IP, Table 8, listed as non-crystalline NB001): significant therapeutic effects | analgesic effect (PWL) as compared with the model group ([5]; 20 mg/kg, i.g.): better analgesic effect | therapeutic effect in EPM test as compared with the positive control group ([6]; 3 mg/kg IP, Table 7, listed as non-crystalline NB001): significant therapeutic effects

CN1CC[C@]23c4c5ccc(O)c4O[C@H]2[C@@H](O)C=C[C@H]3[C@H]1C5 [morphine, reference compound]
analgesic effect (PWL) as compared with the model group ([5]; 2 mg/kg, i.p.): better analgesic effect
